Results published in patent US10100019B2.
Structures can show the parent of a compound that is named as a salt. Where two headings read alike, the source gives them in different places.

Tests used:
H3122 cells = test: Cytotoxicity in non-small cell lung cancer cell line H3122 (SRB); type: cell-based, human
Experimental: Particularly, 4,000 H3122 cells containing ALK enzyme were distributed in each well of a 96 well plate together with 100 μl of DMEM (Dulbecco's Modified Eagle's Medium). One day later, the compound of the present invention was added to each well at different concentrations of […]. DMSO (dimethylsulfoxide) was added to the well that was not loaded with the compound by the same amount as the compound. Three days after the addition of the compound, DMEM was eliminated. 10% TCA (trichloroacetic acid) was added to fix the cells. The wells were washed with running water three times and the live cells were stained with SRB solution (1 sulphorodamine B). Then, OD was measured to calculate the population of the live cells.

H2228 cells = test: cells; details: Homo sapiens, NCI-H2228, 72 h
Ba/F3 EML4-ALK WT cells = test: cells; type: cell-based, rodent; details: read-out: Ba/F3 EML-ALK WT (IC50 μM)
[1] = Homo sapiens, NCI-H3122, 72 h, H3122 cells, three days, SRB
[2] = read-out: Cytotoxicity H2228 (GI50 μM), H2228 cells, three days, SRB

Compound | GI50 (H3122 cells; [1]) [µM] | GI50 (H2228 cells; [2]) [µM] | other results
COc1ccc(CCNC(C)C)cc1Nc1ncc(Cl)c(Nc2ccccc2S(=O)(=O)C(C)C)n1 [Example 15, 5-chloro-N2-(5-(2-(isopropylamino)ethyl)-2-methoxyphenyl)-N4-(2-(isopropylsulfonyl)phenyl)pyrimidine-2,4-diamine] | 1.1 | 0.78 | 
CCNC(=O)NCCc1ccc(OC)c(Nc2ncc(Cl)c(Nc3ccccc3S(=O)(=O)C(C)C)n2)c1 [Example 16, 1-(3-(5-chloro-4-(2-(isopropylsulfonyl)phenylamino)pyrimidine-2-ylamino)-4-methoxyphenethyl)-3-ethylurea] | 0.41 | 0.52 | 
COc1ccc(CCNC(=O)NC2CCCCC2)cc1Nc1ncc(Cl)c(Nc2ccccc2S(=O)(=O)C(C)C)n1 [Example 17, 1-(3-(5-chloro-4-(2-(isopropylsulfonyl)phenylamino)pyrimidine-2-ylamino)-4-methoxyphenethyl)-3-cyclohexylurea] | 0.88 | 2.3 | 
COc1ccc(CCNC(=O)Nc2ccccc2)cc1Nc1ncc(Cl)c(Nc2ccccc2S(=O)(=O)C(C)C)n1 [Example 18, 1-(3-(5-chloro-4-(2-(isopropylsulfonyl)phenylamino)pyrimidine-2-ylamino)-4-methoxyphenethyl)-3-phenylurea] | 3.6 | 4.9 | 
CNC(=S)NCCc1ccc(OC)c(Nc2ncc(Cl)c(Nc3ccccc3S(=O)(=O)C(C)C)n2)c1 [Example 19, 1-(3-(5-chloro-4-(2-(isopropylsulfonyl)phenylamino)pyrimidine-2-ylamino)-4-methoxyphenethyl)-3-methylthiourea] | 1.1 | 10 | 
COc1ccc(CCNC(=S)NCc2ccccc2)cc1Nc1ncc(Cl)c(Nc2ccccc2S(=O)(=O)C(C)C)n1 [Example 20, 1-benzyl-3-(3-(5-chloro-4-(2-(isopropylsulfonyl)phenylamino)pyrimidine-2-ylamino)-4-methoxyphenethyl)thiourea] | 0.31 | 0.42 | 
COc1ccc(CCN2CCCCC2)cc1Nc1ncc(Cl)c(Nc2ccccc2S(=O)(=O)C(C)C)n1 [Example 21, 5-chloro-N4-(2-(isopropylsulfonyl)phenyl)-N2-(2-methoxy-5-(2-(piperidine-1-yl)ethyl)phenyl)pyrimidine-2,4-diamine] |  |  | GI50 (H3122 cells): 0.06 µM; GI50 (H3122 cells; Homo sapiens, NCI-H3122, 72 h): ≤ 0.1 µM; GI50 (H2228 cells; read-out: Cytotoxicity H2228 (GI50 μM)): 0.08 µM
COc1ccc(CCN2CCOCC2)cc1Nc1ncc(Cl)c(Nc2ccccc2S(=O)(=O)C(C)C)n1 [Example 22, 5-chloro-N4-(2-(isopropylsulfonyl)phenyl)-N2-(2-methoxy-5-(2-morpholinoethyl)phenyl)pyrimidine-2,4-diamine] | 0.27 | 0.46 | 
CCNC(=S)NCCc1ccc(OC)c(Nc2ncc(Cl)c(Nc3ccccc3S(=O)(=O)C(C)C)n2)c1 [Example 23, 1-(3-(5-chloro-4-(2-(isopropylsulfonyl)phenylamino)pyrimidine-2-ylamino)-4-methoxyphenethyl)-3-ethylthiourea] | 1.4 | 2.5 | 
COc1ccc(CCNc2ncccn2)cc1Nc1ncc(Cl)c(Nc2ccccc2S(=O)(=O)C(C)C)n1 [Example 25, 5-chloro-N4-(2-(isopropylsulfonyl)phenyl)-N2-(2-methoxy-5-(2-(pyrimidine-2-ylamino)ethyl)phenyl)pyrimidine-2,4-diamine] | 1.3 | 1.5 | 
COC(=O)CNCCc1ccc(OC)c(Nc2ncc(Cl)c(Nc3ccccc3S(=O)(=O)C(C)C)n2)c1 [Example 26, methyl 2-(3-(5-chloro-4-(2-(isopropylsulfonyl)phenylamino)pyrimidine-2-ylamino)-4-methoxyphenethylamino)acetate] | 0.14 | 0.42 | 
COc1ccc(CCNCC(=O)O)cc1Nc1ncc(Cl)c(Nc2ccccc2S(=O)(=O)C(C)C)n1 [Example 27, 2-(3-(5-chloro-4-(2-(isopropylsulfonyl)phenylamino)pyrimidine-2-ylamino)-4-methoxyphenethylamino)acetic acid] | 0.42 | 0.51 | 
COc1ccc(CNC(=O)C(F)(F)F)cc1Nc1ncc(Cl)c(Nc2ccccc2S(=O)(=O)C(C)C)n1 [Example 28, N-(3-((5-chloro-4-((2-(isopropylsulfonyl)phenyl)amino)pyrimidine-2-yl)amino)-4-methoxybenzyl)-2,2,2-trifluoroacetamide] | 0.82 | 0.98 | 
COc1ccc(CN)cc1Nc1ncc(Cl)c(Nc2ccccc2S(=O)(=O)C(C)C)n1 [Example 29, N2-(5-(aminomethyl)-2-methoxyphenyl)-5-chloro-N4-(2-(isopropylsulfonyl)phenyl)pyrimidine-2,4-diamine] | 0.1 | 0.14 | 
COc1ccc(CCNC(=O)C(F)(F)F)cc1Nc1ncc(Cl)c(Nc2ccccc2S(=O)(=O)C(C)C)n1 [Example 30, N-(3-(5-chloro-4-(2-(isopropylsulfonyl)phenylamino)pyrimidine-2-ylamino)-4-methoxyphenethyl)-2,2,2-trifluoroacetamide] | 0.48 | 0.76 | 
CC(C)Oc1ccc(CCN)cc1Nc1ncc(Cl)c(Nc2ccccc2S(=O)(=O)C(C)C)n1 [Example 31, N2-(5-(2-aminoethyl)-2-isopropoxyphenyl)-5-chloro-N4-(2-(isopropylsulfonyl)phenyl)pyrimidine-2,4-diamine] | 0.7 | 0.51 | 
COc1ccc(CCN)cc1Nc1ncc(Cl)c(Nc2ccc(F)cc2S(=O)(=O)C(C)C)n1 [Example 32, N2-(5-(2-aminoethyl)-2-methoxyphenyl)-5-chloro-N4-(4-fluoro-2-(isopropylsulfonyl)phenyl)pyrimidine-2,4-diamine] | 0.71 | 0.64 | 
COc1ccc(CCN)cc1Nc1ncc(Cl)c(Nc2cc(F)ccc2S(=O)(=O)C(C)C)n1 [Example 33, N2-(5-(2-aminoethyl)-2-methoxyphenyl)-5-chloro-N4-(5-fluoro-2-(isopropylsulfonyl)phenyl)pyrimidine-2,4-diaminehydrochloride] |  | 10 | GI50 (H3122 cells; H3122 cells, three days, SRB): 10 µM
COc1ccc(CCN)cc1Nc1ncc(Cl)c(Nc2c(F)cccc2S(=O)(=O)C(C)C)n1 [Example 34, N2-(5-(2-aminoethyl)-2-methoxyphenyl)-5-chloro-N4-(2-fluoro-6-(isopropylsulfonyl)phenyl)pyrimidine-2,4-diaminehydrochloride] | 2.2 | 2.3 | 
COc1ccc(C(C)(C)CN)cc1Nc1ncc(Cl)c(Nc2ccccc2S(=O)(=O)C(C)C)n1 [Example 35, N2-(5-(1-amino-2-methylpropane-2-yl)-2-methoxyphenyl)-5-chloro-N4-(2-(isopropylsulfonyl)phenyl)pyrimidine-2,4-diamine] | 1.6 | 1.6 | 
COc1ccc(C(C)(C)CN)cc1Nc1ncc(Cl)c(Nc2ccc(F)cc2S(=O)(=O)C(C)C)n1 [Example 36, N2-(5-(1-amino-2-methylpropane-2-yl)-2-methoxyphenyl)-5-chloro-N4-(4-fluoro-2-(isopropylsulfonyl)phenyl)pyrimidine-2,4-diamine] |  | 10 | GI50 (H3122 cells; H3122 cells, three days, SRB): 10 µM
COc1ccc(C(C)(C)CN)cc1Nc1ncc(Cl)c(Nc2cc(F)ccc2S(=O)(=O)C(C)C)n1 [Example 37, N2-(5-(1-amino-2-methylpropane-2-yl)-2-methoxyphenyl)-5-chloro-N4-(5-fluoro-2-(isopropylsulfonyl)phenyl)pyrimidine-2,4-diamine] |  | 10 | GI50 (H3122 cells; H3122 cells, three days, SRB): 10 µM
COc1ccc(C(C)(C)CN)cc1Nc1ncc(Cl)c(Nc2c(F)cccc2S(=O)(=O)C(C)C)n1 [Example 38, N2-(5-(1-amino-2-methylpropane-2-yl)-2-methoxyphenyl)-5-chloro-N4-(2-fluoro-6-(isopropylsulfonyl)phenyl)pyrimidine-2,4-diamine] |  | 10 | GI50 (H3122 cells; H3122 cells, three days, SRB): 10 µM
COc1cc(CC#N)c(C)cc1Nc1ncc(Cl)c(Nc2ccccc2S(=O)(=O)C(C)C)n1 [Example 53, 2-(4-((5-chloro-4-((2-(isopropylsulfonyl)phenyl)amino)pyrimidine-2-yl)amino)-5-methoxy-2-methylphenyl)acetonitrile] | 0.074 |  | IC50 (Ba/F3 EML4-ALK WT cells; Ba/F3 EML4-ALK): ≤ 0.1 µM; IC50 (Ba/F3 EML4-ALK WT cells): 0.061 µM
COc1cc(C(C)(C)C#N)c(C)cc1Nc1ncc(Cl)c(Nc2ccccc2S(=O)(=O)C(C)C)n1 [Example 54, 2-(4-((5-chloro-4-((2-(isopropylsulfonyl)phenyl)amino)pyrimidine-2-yl)amino)-5-methoxy-2-methylphenyl)-2-methylpropanenitrile] | 0.25 |  | IC50 (Ba/F3 EML4-ALK WT cells; Ba/F3 EML4-ALK): 0.25 µM
COc1cc(C(C)(C)NC=O)c(C)cc1Nc1ncc(Cl)c(Nc2ccccc2S(=O)(=O)C(C)C)n1 [Example 61, N-(2-(4-((5-chloro-4-((2-(isopropylsulfonyl)phenyl)amino)pyrimidine-2-yl)amino)-5-methoxy-2-methylphenyl)propane-2-yl)formamide] | 0.052 |  | IC50 (Ba/F3 EML4-ALK WT cells; Ba/F3 EML4-ALK): 0.024 µM
COc1cc(-c2ccccc2)c(CCN)cc1Nc1ncc(Cl)c(Nc2ccccc2S(=O)(=O)C(C)C)n1 [Example 67] | 0.23 |  | IC50 (Ba/F3 EML4-ALK WT cells; Ba/F3 EML4-ALK): 0.11 µM
COc1cc(CNC=O)c(C)cc1Nc1ncc(Cl)c(Nc2ccccc2S(=O)(=O)C(C)C)n1 [Example 71, N-(4-((5-chloro-4-((2-(isopropylsulfonyl)phenyl)amino)pyrimidine-2-yl)amino)-5-methoxy-2-methylbenzyl)formamide] |  |  | IC50 (Ba/F3 EML4-ALK WT cells; Ba/F3 EML4-ALK): 0.015 µM
